ChEMBL document CHEMBL1145697, “Halishigamides AD, New Cytotoxic Oxazole-Containing Metabolites from Okinawan Sponge Halichondria sp” (J Nat Prod, 1997)
≈ marks a conversion by molar mass, not a printed value.

Tests used:
[1] = system: Trichophyton mentagrophytes; assay: Antifungal activity against Trichophyton mentagrophytes; type: functional
[2] = system: KB; assay: Cytotoxicity against human KB cells; type: functional, cell-based
[3] = system: L1210; assay: Cytotoxicity against mouse L1210 cells; type: functional, cell-based

SMILES	MIC [1] [µg/mL]	IC50 [2] [µg/mL]	IC50 [3] [µg/mL]
COC(=O)c1coc(/C=C/CCC(C)C(CC(OC)C(C)CCC(=O)C(C)C(C/C=C/N(C)C=O)OC)OC(=O)CC(O)C/C=C/C(=O)C(C)C(OC)c2coc(C(N)=O)n2)n1 (configuration not stated) [HALISHIGAMIDE D]	6.5 (≈ 7.45 µM)	1.8 (≈ 2.06 µM)	1.1 (≈ 1.26 µM)
CO[C@@H](C[C@@H]1OC(=O)C[C@@H](O)C[C@H](N)CC(=O)[C@H](C)[C@H](OC)c2coc(n2)-c2coc(n2)-c2coc(n2)/C=C/CC[C@H]1C)[C@@H](C)CCC(=O)[C@H](C)[C@@H](C/C=C/N(C)C=O)OC [HALISHIGAMIDE A]	0.1 (≈ 0.117 µM)	0.012 (≈ 0.0141 µM)	0.0036 (≈ 0.00422 µM)
COC(=O)c1coc(-c2coc(/C=C/CCC(C)C(CC(OC)C(C)CCC(=O)C(C)C(C/C=C/N(C)C=O)OC)OC(=O)CC(O)C/C=C/C(=O)C(C)C(OC)C(N)=O)n2)n1 (configuration not stated) [HALISHIGAMIDE C]	25 (≈ 28.6 µM)	6.5 (≈ 7.45 µM)	5.2 (≈ 5.96 µM)
COC(CC1OC(=O)CC(O)C/C=C/C(=O)C(C)C(OC)C(=O)NC(=O)c2coc(n2)-c2coc(n2)/C=C/CCC1C)C(C)CCC(=O)C(C)C(C/C=C/N(C)C=O)OC (configuration not stated) [HALISHIGAMIDE B]	25 (≈ 29.7 µM)	7.5 (≈ 8.92 µM)	4.4 (≈ 5.23 µM)
